Literature values, collected in patent publication US11723873B2, “Oral dosage form of ticagrelor and preparation method thereof” (Elite Pharmaceutical Solution Inc., priority 2021, dated 2023).

Experiments:
[1] = in vivo
[2] = room temperature, crystalline powder

Tmax range of formation of the major circulating metabolite [1] [h]	median time (Tmax) of formation of the major circulating metabolite [1]	aqueous solubility [2]	Compound
1.5 to 5.0	approximately 2.5 hours		CCCSc1nc(N[C@@H]2C[C@H]2c2ccc(F)c(F)c2)c2nnn([C@@H]3C[C@H](O)[C@@H](O)[C@H]3O)c2n1 [AR-C124910XX]
		approximately 10 μg/mL	CCCSc1nc(N[C@@H]2C[C@H]2c2ccc(F)c(F)c2)c2nnn([C@@H]3C[C@H](OCCO)[C@@H](O)[C@H]3O)c2n1 [ticagrelor, (1S,2S,3R,5S)-3-[7-{[(1R,2S)-2-(3,4-difluorophenyl)cyclopropyl]amino}-5-(propylthio)-3H-[1,2,3]-triazolo[4,5-d]pyrimidin-3-yl]-5-(2-hydroxyethoxy)cyclopentane-1,2-diol]
